Like-named read-outs stand apart in the source and are kept apart here.

Assay [1] addresses HCV NS3/4A protease genotype 1b (Hepatitis C virus genotype 1b, UniProt P26663). Nature of the assay: HCV NS3/4A protease time-resolved fluorescence (TRF) assay, Ki against genotype 1b. Format: biochemical. The following applies: IC50 [gt-1b], NS3/4A protease TRF assay, genotype 1b enzyme 0.2 nM. In outline: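 Enzyme 0.2 nM 1b / 0.4 nM A156T / 0.025 nM 3a; 30 min preinc. w/ cpd; 25 nM TRF peptide; 2.5 h RT; ex 340/em 615 time-delayed; 4-param IC50 → Ki = IC50/(1+[S]/KM).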

The test system of a further assay is HCV genotype 1b replicon. Nature of the assay: HCV replicon assay, genotype 1b replicon EC50. Format: cell-based, Hepatitis C virus. The following applies: Hepatitis C virus, HCV replicon, genotype 1b, read-out: EC50 [gt-1b]. In outline:
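Stable neomycin phosphotransferase-encoding replicon cell lines, kept under G418 selection beforehand, were plated with a compound dilution series without G418 and incubated 24-48 hours. Replicon RNA was then quantified, or luciferase activity read. EC50 was calculated as percent of DMSO control by four-parameter fit.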
A general note: A replicon is a self-replicating genome or part of one, used to study replication in cells.

The term IC50 denotes the point on the concentration scale where inhibition reaches its midpoint. For orientation: EC50 means the concentration at which the effect is half-maximal. With `COc1ccc2nc(C(F)F)c3c(c2c1)CC[C@]1(C[C@H]2C(=O)N[C@]4(C(=O)NS(=O)(=O)C5(C)CC5)C[C@H]4/C=C\CCCCC[C@H](NC(=O)O[C@@H](C)C(C)C)C(=O)N2C1)O3` [Example 442, (2S)-3-methylbutan-2-yl [(2R,6S,12Z,13aS,14aR,16aS)-5′-(difluoromethyl)-9′-methoxy-14a-{[(1-methylcyclopropyl)sulfonyl]carbamoyl}-5,16-dioxo-1,1′,2′,5,6,7,8,9,10,11,13a,14,14a,15,16,16a-hexadecahydrospiro[cyclopropa[e]pyrrolo[1,2-a][1,4]diazacyclopentadecine-2,3′-pyrano[2,3-c]quinolin]-6-yl]carbamate], in assay [1] (K+ salt), the half-inhibitory concentration (IC50) is 0.024 nM. For the same molecule, in the assay with HCV genotype 1b replicon (K+ salt), the EC50 was determined as 1.68 nM.

On to `COc1ccc2nc(C(F)F)c3c(c2c1)CC[C@]1(C[C@H]2C(=O)N[C@]4(C(=O)NS(=O)(=O)C5(C)CC5)C[C@H]4/C=C\CCCCC[C@H](NC(=O)O[C@H](C)C(C)C)C(=O)N2C1)O3` [Example 443, (2R)-3-methylbutan-2-yl [(2R,6S,12Z,13aS,14aR,16aS)-5′-(difluoromethyl)-9′-methoxy-14a-{[(1-methylcyclopropyl)sulfonyl]carbamoyl}-5,16-dioxo-1,1′,2′,5,6,7,8,9,10,11,13a,14,14a,15,16,16a-hexadecahydrospiro[cyclopropa[e]pyrrolo[1,2-a][1,4]diazacyclopentadecine-2,3′-pyrano[2,3-c]quinolin]-6-yl]carbamate], for which the IC50 in assay [1] (K+ salt) came to 0.025 nM. For the same molecule, in the assay on HCV genotype 1b replicon (K+ salt), the 50% effective concentration (EC50) stood at 1.79 nM.

With `CC[C@H](C)OC(=O)N[C@H]1CCCCC/C=C\[C@@H]2C[C@@]2(C(=O)NS(=O)(=O)C2(C)CC2)NC(=O)[C@@H]2C[C@]3(CCc4c(c(C(F)F)nc5ccc(OC)cc45)O3)CN2C1=O` [Example 444, (2S)-butan-2-yl [(2R,6S,12Z,13aS,14aR,16aS)-5′-(difluoromethyl)-9′-methoxy-14a-{[(1-methylcyclopropyl)sulfonyl]carbamoyl}-5,16-dioxo-1,1′,2′,5,6,7,8,9,10,11,13a,14,14a,15,16,16a-hexadecahydrospiro[cyclopropa[e]pyrrolo[1,2-a][1,4]diazacyclopentadecine-2,3′-pyrano[2,3-c]quinolin]-6-yl]carbamate], in assay [1] (K+ salt), the IC50 turned out to be 0.014 nM. For the same molecule, the EC50 in the assay with HCV genotype 1b replicon (K+ salt) was 1.31 nM.

For `CC[C@@H](C)OC(=O)N[C@H]1CCCCC/C=C\[C@@H]2C[C@@]2(C(=O)NS(=O)(=O)C2(C)CC2)NC(=O)[C@@H]2C[C@]3(CCc4c(c(C(F)F)nc5ccc(OC)cc45)O3)CN2C1=O` [Example 445, (2R)-butan-2-yl [(2R,6S,12Z,13aS,14aR,16aS)-5′-(difluoromethyl)-9′-methoxy-14a-{[(1-methylcyclopropyl)sulfonyl]carbamoyl}-5,16-dioxo-1,1′,2′,5,6,7,8,9,10,11,13a,14,14a,15,16,16a-hexadecahydrospiro[cyclopropa[e]pyrrolo[1,2-a][1,4]diazacyclopentadecine-2,3′-pyrano[2,3-c]quinolin]-6-yl]carbamate], the IC50 in assay [1] (K+ salt) is 0.014 nM. For the same molecule, in the assay on HCV genotype 1b replicon (K+ salt), the EC50 is 1.14 nM.

In turn, `COc1ccc2nc(C(F)F)c3c(c2c1)CC[C@]1(C[C@H]2C(=O)N[C@]4(C(=O)NS(=O)(=O)C5(C)CC5)C[C@H]4/C=C\CCCCC[C@H](NC(=O)OC(C)C)C(=O)N2C1)O3` [Example 446, propan-2-yl [(2R,6S,12Z,13aS,14aR,16aS)-5′-(difluoromethyl)-9′-methoxy-14a-{[(1-methylcyclopropyl)sulfonyl]carbamoyl}-5,16-dioxo-1,1′,2′,5,6,7,8,9,10,11,13a,14,14a,15,16,16a-hexadecahydrospiro[cyclopropa[e]pyrrolo[1,2-a][1,4]diazacyclopentadecine-2,3′-pyrano[2,3-c]quinolin]-6-yl]carbamate] returned an IC50 in assay [1] of 0.013 nM. The half-maximal effective concentration (EC50) in the assay with HCV genotype 1b replicon amounted to 1.17 nM.

`COc1ccc2nc(C(F)(F)F)c3c(c2c1)CC[C@]1(C[C@H]2C(=O)N[C@]4(C(=O)NS(=O)(=O)C5(C)CC5)C[C@H]4/C=C\CCCCC[C@H](NC(=O)OC(C)C)C(=O)N2C1)O3` [Example 447, propan-2-yl [(2R,6S,12Z,13aS,14aR,16aS)-9′-methoxy-14a-{[(1-methylcyclopropyl)sulfonyl]carbamoyl}-5,16-dioxo-5′-(trifluoromethyl)-1,1′,2′,5,6,7,8,9,10,11,13a,14,14a,15,16,16a-hexadecahydrospiro[cyclopropa[e]pyrrolo[1,2-a][1,4]diazacyclopentadecine-2,3′-pyrano[2,3-c]quinolin]-6-yl]carbamate] returned an IC50 in assay [1] of 0.019 nM. In addition, in the assay with HCV genotype 1b replicon, the concentration giving a half-maximal response (EC50) was found to be 1.37 nM.

In assay [1], `CCCOC(=O)N[C@H]1CCCCC/C=C\[C@@H]2C[C@@]2(C(=O)NS(=O)(=O)C2(C)CC2)NC(=O)[C@@H]2C[C@]3(CCc4c(c(C(F)(F)F)nc5ccc(OC)cc45)O3)CN2C1=O` [Example 448, propyl [(2R,6S,12Z,13aS,14aR,16aS)-9′-methoxy-14a-{[(1-methylcyclopropyl)sulfonyl]carbamoyl}-5,16-dioxo-5′-(trifluoromethyl)-1,1′,2′,5,6,7,8,9,10,11,13a,14,14a,15,16,16a-hexadecahydrospiro[cyclopropa[e]pyrrolo[1,2-a][1,4]diazacyclopentadecine-2,3′-pyrano[2,3-c]quinolin]-6-yl]carbamate] gave an IC50 of 0.006 nM. Moreover, in the assay on HCV genotype 1b replicon, the EC50 is 2.69 nM.

The molecule `COc1ccc2nc(C(F)(F)F)c3c(c2c1)CC[C@]1(C[C@H]2C(=O)N[C@]4(C(=O)NS(=O)(=O)C5(C)CC5)C[C@H]4/C=C\CCCCC[C@H](NC(=O)OC4(C(C)C)CC4)C(=O)N2C1)O3` [Example 449, 1-(propan-2-yl)cyclopropyl [(2R,6S,12Z,13aS,14aR,16aS)-9′-methoxy-14a-{[(1-methylcyclopropyl)sulfonyl]carbamoyl}-5,16-dioxo-5′-(trifluoromethyl)-1,1′,2′,5,6,7,8,9,10,11,13a,14,14a,15,16,16a-hexadecahydrospiro[cyclopropa[e]pyrrolo[1,2-a][1,4]diazacyclopentadecine-2,3′-pyrano[2,3-c]quinolin]-6-yl]carbamate] yielded a concentration for half-maximal inhibition (IC50) in assay [1] of 0.007 nM. The concentration giving a half-maximal response (EC50) in the assay on HCV genotype 1b replicon worked out at 1.39 nM.

Regarding `COc1ccc2nc(C(F)(F)F)c3c(c2c1)CC[C@]1(C[C@H]2C(=O)N[C@]4(C(=O)NS(=O)(=O)C5(C)CC5)C[C@H]4/C=C\CCCCC[C@H](NC(=O)OC4CCC4)C(=O)N2C1)O3` [Example 450, cyclobutyl [(2R,6S,12Z,13aS,14aR,16aS)-9′-methoxy-14a-{[(1-methylcyclopropyl)sulfonyl]carbamoyl}-5,16-dioxo-5′-(trifluoromethyl)-1,1′,2′,5,6,7,8,9,10,11,13a,14,14a,15,16,16a-hexadecahydrospiro[cyclopropa[e]pyrrolo[1,2-a][1,4]diazacyclopentadecine-2,3′-pyrano[2,3-c]quinolin]-6-yl]carbamate], the IC50 in assay [1] was determined as 0.019 nM. Moreover, in the assay on HCV genotype 1b replicon, the EC50 came to 1.69 nM.

For `CCC1(OC(=O)N[C@H]2CCCCC/C=C\[C@@H]3C[C@@]3(C(=O)NS(=O)(=O)C3(C)CC3)NC(=O)[C@@H]3C[C@]4(CCc5c(c(C(F)(F)F)nc6ccc(OC)cc56)O4)CN3C2=O)CC1` [Example 452, 1-ethylcyclopropyl [(2R,6S,12Z,13aS,14aR,16aS)-9′-methoxy-14a-{[(1-methylcyclopropyl)sulfonyl]carbamoyl}-5,16-dioxo-5′-(trifluoromethyl)-1,1′,2′,5,6,7,8,9,10,11,13a,14,14a,15,16,16a-hexadecahydrospiro[cyclopropa[e]pyrrolo[1,2-a][1,4]diazacyclopentadecine-2,3′-pyrano[2,3-c]quinolin]-6-yl]carbamate], in assay [1], the IC50 was determined as 0.03 nM. Moreover, the EC50 in the assay on HCV genotype 1b replicon is 2.4 nM.

As for `COCCCOc1ccc2nc(C)c3c(c2c1)CC[C@]1(C[C@H]2C(=O)N[C@]4(C(=O)NS(=O)(=O)C5(C)CC5)C[C@H]4/C=C\CCCCC[C@H](NC(=O)OCC(C)(C)C)C(=O)N2C1)O3` [Example 453, 2,2-dimethylpropyl [(2R,6S,12Z,13aS,14aR,16aS)-9′-(3-methoxypropoxy)-5′-methyl-14a-{[(1-methylcyclopropyl)sulfonyl]carbamoyl}-5,16-dioxo-1,1′,2′,5,6,7,8,9,10,11,13a,14,14a,15,16,16a-hexadecahydrospiro[cyclopropa[e]pyrrolo[1,2-a][1,4]diazacyclopentadecine-2,3′-pyrano[2,3-c]quinolin]-6-yl]carbamate], the midpoint of inhibition in assay [1], the IC50, lay at 0.017 nM. Moreover, the EC50 in the assay with HCV genotype 1b replicon was 1.78 nM.

Consider `COc1ccc2nc(C3CC3)c3c(c2c1)[C@H](F)C[C@]1(C[C@H]2C(=O)N[C@]4(C(=O)NS(=O)(=O)C5(C)CC5)C[C@H]4/C=C\CCCCC[C@H](NC(=O)OCC(C)C)C(=O)N2C1)O3` [Example 454, 2-methylpropyl [(1′R,2S,6S,12Z,13aS,14aR,16aS)-5′-cyclopropyl-1′-fluoro-9′-methoxy-14a-{[(1-methylcyclopropyl)sulfonyl]carbamoyl}-5,16-dioxo-1,1′,2′,5,6,7,8,9,10,11,13a,14,14a,15,16,16a-hexadecahydrospiro[cyclopropa[e]pyrrolo[1,2-a][1,4]diazacyclopentadecine-2,3′-pyrano[2,3-c]quinolin]-6-yl]carbamate], for which, in assay [1] (K+ salt), the IC50 was found to be 0.024 nM. Also, the EC50 with HCV genotype 1b replicon (K+ salt) is 1.38 nM.

The values are drawn from patent US8987195B2 (priority 2012, dated 2015).
